Target: USP7 (Homo sapiens (Human), UniProt Q93009)
Assay: USP7 fluorescence polarisation (FP) biochemical assay, ubiquitin-Lys-TAMRA substrate
Conditions: Table 3, effect of the R2 substituent; read-out: USP7 IC50
Method in brief: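 Full-length His6-USP7 (2.5 nM) incubated ± inhibitor (8-point dilutions, 200 to 0.1 μM before addition) in 50 mM HEPES pH 7.2, 150 mM NaCl, 0.5 mM EDTA, 5 mM DTT, 0.05% BSA, 0.05% CHAPS. Ubiquitin-Lys-TAMRA cleavage followed by FP (ex 530/em 575 nm) every 15 min for 1.5 h; normalised to no-compound control.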

USP7, sequence (Q93009 whole entry): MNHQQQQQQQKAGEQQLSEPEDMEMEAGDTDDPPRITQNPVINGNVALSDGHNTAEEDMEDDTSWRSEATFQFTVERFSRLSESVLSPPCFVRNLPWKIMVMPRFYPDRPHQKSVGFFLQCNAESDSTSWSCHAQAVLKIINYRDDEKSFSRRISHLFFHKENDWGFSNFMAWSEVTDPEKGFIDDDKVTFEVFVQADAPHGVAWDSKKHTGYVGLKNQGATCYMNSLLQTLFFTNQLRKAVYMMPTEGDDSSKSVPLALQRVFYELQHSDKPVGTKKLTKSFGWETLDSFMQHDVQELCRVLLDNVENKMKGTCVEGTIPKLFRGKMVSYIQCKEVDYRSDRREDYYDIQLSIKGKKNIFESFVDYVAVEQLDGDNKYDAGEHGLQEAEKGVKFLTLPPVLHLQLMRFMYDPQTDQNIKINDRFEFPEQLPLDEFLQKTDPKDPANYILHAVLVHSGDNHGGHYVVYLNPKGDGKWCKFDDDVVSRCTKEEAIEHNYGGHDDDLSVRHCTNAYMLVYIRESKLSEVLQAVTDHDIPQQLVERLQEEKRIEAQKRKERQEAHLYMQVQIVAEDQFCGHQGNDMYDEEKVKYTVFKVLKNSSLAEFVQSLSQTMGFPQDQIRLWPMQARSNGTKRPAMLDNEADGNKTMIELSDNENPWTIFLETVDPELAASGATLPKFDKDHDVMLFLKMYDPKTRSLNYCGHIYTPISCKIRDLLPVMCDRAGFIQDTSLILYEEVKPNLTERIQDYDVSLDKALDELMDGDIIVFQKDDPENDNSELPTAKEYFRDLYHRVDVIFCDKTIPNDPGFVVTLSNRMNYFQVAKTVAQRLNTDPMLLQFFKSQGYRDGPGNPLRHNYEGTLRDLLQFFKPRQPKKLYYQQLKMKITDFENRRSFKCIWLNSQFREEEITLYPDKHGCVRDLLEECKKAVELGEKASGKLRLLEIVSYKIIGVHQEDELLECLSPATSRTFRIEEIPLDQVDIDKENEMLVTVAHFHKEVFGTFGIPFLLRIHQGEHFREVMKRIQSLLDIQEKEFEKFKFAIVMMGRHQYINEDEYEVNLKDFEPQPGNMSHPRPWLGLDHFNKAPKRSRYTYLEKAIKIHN

IC50 [nM]	SMILES
14000	Cn1nc2c(=O)n(CC3(O)CCN(C(=O)CCc4ccccc4)CC3)cnc2c1C(F)(F)F [Example 39, 6-((4-Hydroxy-1-(3-phenylpropanoyl)piperidin-4-yl)methyl)-2-methyl-3-(trifluoromethyl)-2H-pyrazolo[4,3-d]pyrimidin-7(6H)-one]

Same assay, conditions: Table 4, biochemical assay; average of at least duplicate experiments; read-out: USP7 IC50

SMILES	IC50 [nM]
O=C(c1cnc(C2CC2)o1)N1CCC(O)(Cn2cnc3c(cc(Cl)n3-c3cccc(C4CC4)c3)c2=O)CC1 [Example 217, 6-Chloro-3-((1-(2-cyclopropyloxazole-5-carbonyl)-4-hydroxypiperidin-4-yl)methyl)-7-(3-cyclopropylphenyl)-3H-pyrrolo[2,3-d]pyrimidin-4(7H)-one]	< 250
Cn1nccc1-c1cccc(-n2c(Cl)cc3c(=O)n(CC4(O)CCN(C(=O)c5cnc(C6CC6)o5)CC4)cnc32)c1 [Example 210, 6-Chloro-3-((1-(2-cyclopropyloxazole-5-carbonyl)-4-hydroxypiperidin-4-yl)methyl)-7-(3-(1-methyl-1H-pyrazol-5-yl)phenyl)-3H-pyrrolo[2,3-d]pyrimidin-4(7H)-one]	250 to 999
CC(=O)N(CCN1CCCC1)c1cc(=O)n(CC2(O)CCN(C(=O)C[C@@H](C)c3ccccc3)CC2)cn1 [Example 113, (R)—N-(1-((4-Hydroxy-1-(3-phenylbutanoyl)piperidin-4-yl)methyl)-6-oxo-1,6-dihydropyrimidin-4-yl)-N-(2-(pyrrolidin-1-yl)ethyl)acetamide, Formic Acid]	1000 to 200000
O=C(c1cnc(C2CC2)o1)N1CCC(O)(Cn2cnc3c(cc(Cl)n3-c3ccc(C4CC4)cc3)c2=O)CC1 [Example 221, 6-Chloro-3-((1-(2-cyclopropyloxazole-5-carbonyl)-4-hydroxypiperidin-4-yl)methyl)-7-(4-cyclopropylphenyl)-3H-pyrrolo[2,3-d]pyrimidin-4(7H)-one]	< 250
C[C@H](CC(=O)N1CCC(O)(Cn2cnc(NC[C@@H]3CCCN3C)cc2=O)CC1)c1ccccc1 [Example 66, 3-((4-Hydroxy-1-((R)-3-phenylbutanoyl)piperidin-4-yl)methyl)-6-((((S)-1-methylpyrrolidin-2-yl)methyl)amino)pyrimidin-4(3H)-one, Formic Acid]	1000 to 200000
C[C@H](CC(=O)N1CCC(O)(Cn2cnc(/C=C/CN3CC[C@@H](N)C3)cc2=O)CC1)c1ccccc1 [Example 55, 6-((E)-3-((R)-3-Aminopyrrolidin-1-yl)prop-1-en-1-yl)-3-((4-hydroxy-1-((R)-3-phenylbutanoyl)piperidin-4-yl)methyl)pyrimidin-4(3H)-one, Formic Acid]	1000 to 200000
C[C@H](CC(=O)N1CCC(O)(Cn2cnc(N3CCN(Cc4ccccn4)CC3)cc2=O)CC1)c1ccccc1 [Example 159, (R)-3-((4-hydroxy-1-(3-phenylbutanoyl)piperidin-4-yl)methyl)-6-(4-(pyridin-2-ylmethyl)piperazin-1-yl)pyrimidin-4(3H)-one]	1000 to 200000
Cn1nc2c(=O)n(CC3(O)CCN(C(=O)C[C@H](c4ccccc4)C(F)(F)F)CC3)cnc2c1-c1ccc([C@H](N)C(F)(F)F)cc1 [Example 119, 3-(4-((S)-1-Amino-2,2,2-trifluoroethyl)phenyl)-6-((4-hydroxy-1-((R)-4,4,4-trifluoro-3-phenylbutanoyl)piperidin-4-yl)methyl)-2-methyl-2H-pyrazolo[4,3-d]pyrimidin-7(6H)-one]	< 250
C[C@H]1CCN(CCNc2cc(=O)n(CC3(O)CCN(C(=O)C[C@@H](C)c4ccccc4)CC3)cn2)C1 [Example 71, 3-((4-Hydroxy-1-((R)-3-phenylbutanoyl)piperidin-4-yl)methyl)-6-((2-((S)-3-methylpyrrolidin-1-yl)ethyl)amino)pyrimidin-4(3H)-one, Formic Acid]	< 250
C[C@H](CC(=O)N1CCC(O)(Cn2cnc(NCCN3CCC[C@@H]3C)cc2=O)CC1)c1ccccc1 [Example 69, 3-((4-Hydroxy-1-((R)-3-phenylbutanoyl)piperidin-4-yl)methyl)-6-((2-((S)-2-methylpyrrolidin-1-yl)ethyl)amino)pyrimidin-4(3H)-one, Formic Acid]	< 250
C[C@H](CC(=O)N1CCC(O)(Cn2cnc(N3CC4(CN(C)CCO4)C3)cc2=O)CC1)c1ccccc1 [Example 171, (R)-3-((4-hydroxy-1-(3-phenylbutanoyl)piperidin-4-yl)methyl)-6-(8-methyl-5-oxa-2,8-diazaspiro[3.5]nonan-2-yl)pyrimidin-4(3H)-one]	1000 to 200000

Other lines, results leading:

IC50 [nM]	SMILES
1000 to 200000	C[C@H](CC(=O)N1CCC(O)(Cn2cnc(-c3cncnc3)cc2=O)CC1)c1ccccc1 [Example 102]
< 250	O=C(c1cnc(C2CC2)o1)N1CCC(O)(Cn2cnc3c(cc(Cl)n3-c3ccccc3)c2=O)CC1 [Example 215, 6-Chloro-3-((1-(2-cyclopropyloxazole-5-carbonyl)-4-hydroxypiperidin-4-yl)methyl)-7-phenyl-3H-pyrrolo[2,3-d]pyrimidin-4(7H)-one]
1000 to 200000	Cn1nc2c(=O)n(CC3(O)CCN(C(=O)C4(C)CC4)CC3)cnc2c1-c1ccc(C(=O)O)cc1 [Example 245, 4-(6-((4-Hydroxy-1-(1-methylcyclopropane-1-carbonyl)piperidin-4-yl)methyl)-2-methyl-7-oxo-6,7-dihydro-2H-pyrazolo[4,3-d]pyrimidin-3-yl)benzoic Acid]
1000 to 200000	Cn1nc2c(=O)n(CC3(O)CCN(C(=O)CCc4ccccc4)CC3)cnc2c1C(F)(F)F [Example 39, 6-((4-Hydroxy-1-(3-phenylpropanoyl)piperidin-4-yl)methyl)-2-methyl-3-(trifluoromethyl)-2H-pyrazolo[4,3-d]pyrimidin-7(6H)-one]
< 250	O=C(c1cnc(C2CC2)o1)N1CCC(O)(Cn2cnc3c(cc(I)n3-c3ccccc3)c2=O)CC1 [Example 224, 3-((1-(2-Cyclopropyloxazole-5-carbonyl)-4-hydroxypiperidin-4-yl)methyl)-6-iodo-7-phenyl-3H-pyrrolo[2,3-d]pyrimidin-4(7H)-one]
1000 to 200000	O=C(CCC1CCC1)N1CCC(O)(Cn2cnc3c(nnn3-c3ccccc3)c2=O)CC1 [Example 186, 6-((1-(3-Cyclobutylpropanoyl)-4-hydroxypiperidin-4-yl)methyl)-3-phenyl-3H-[1,2,3]triazolo[4,5-d]pyrimidin-7(6H)-one]
250 to 999	Cn1nc2c(=O)n(CC3(O)CCN(C(=O)CCC4CCC4)CC3)cnc2c1-c1ccc(CN)cc1 [Example 138, 3-(4-(Aminomethyl)phenyl)-6-((1-(3-cyclobutylpropanoyl)-4-hydroxypiperidin-4-yl)methyl)-2-methyl-2H-pyrazolo[4,3-d]pyrimidin-7(6H)-one]
1000 to 200000	CN(C)CC#Cc1c2ncn(CC3(O)CCN(C(=O)C[C@H](c4ccccc4)C(F)(F)F)CC3)c(=O)c2nn1C [Example 135, (R)-3-(3-(Dimethylamino)prop-1-yn-1-yl)-6-((4-hydroxy-1-(4,4,4-trifluoro-3-phenylbutanoyl)piperidin-4-yl)methyl)-2-methyl-2H-pyrazolo[4,3-d]pyrimidin-7(6H)-one]
1000 to 200000	Cn1nc2c(=O)n(CC3(O)CCN(C(=O)C4(C)CC4)CC3)cnc2c1-c1ccccc1 [Example 191, 6-((4-Hydroxy-1-(1-methylcyclopropanecarbonyl)piperidin-4-yl)methyl)-2-methyl-3-phenyl-2H-pyrazolo[4,3-d]pyrimidin-7(6H)-one]
< 250	CN(C)Cc1ccc(-c2c3ncn(CC4(O)CCN(C(=O)C[C@H](c5ccccc5)C(F)(F)F)CC4)c(=O)c3nn2C)cc1 [Example 79, (R)-3-(4-((Dimethylamino)methyl)phenyl)-6-((4-hydroxy-1-(4,4,4-trifluoro-3-phenylbutanoyl)piperidin-4-yl)methyl)-2-methyl-2H-pyrazolo[4,3-d]pyrimidin-7(6H)-one]
< 250	O=C(C[C@H](c1ccccc1)C(F)F)N1CCC(O)(Cn2cnc3c(ncn3-c3ccccc3)c2=O)CC1 [Example 129, (R)-1-((1-(4,4-Difluoro-3-phenylbutanoyl)-4-hydroxypiperidin-4-yl)methyl)-9-phenyl-1H-purin-6(9H)-one]
< 250	C[C@H](CC(=O)N1CCC(O)(Cn2cnc3c(-c4ccccc4)cnn3c2=O)CC1)c1ccccc1 [Example 139, (R)-3-((4-Hydroxy-1-(3-phenylbutanoyl)piperidin-4-yl)methyl)-8-phenylpyrazolo[1,5-a][1,3,5]triazin-4(3H)-one]
< 250	CCOC(=O)NCc1ccc(-c2c3ncn(CC4(O)CCN(C(=O)C[C@@H](C)c5ccccc5)CC4)c(=O)c3nn2C)cc1 [Example 194, (R)-Ethyl 4-(6-((4-hydroxy-1-(3-phenylbutanoyl)piperidin-4-yl)methyl)-2-methyl-7-oxo-6,7-dihydro-2H-pyrazolo[4,3-d]pyrimidin-3-yl)benzylcarbamate]

Same assay, conditions: USP7 IC50, Table 4, biochemical assay; average of at least duplicate experiments

IC50 [nM]	SMILES
250 to 999	C[C@H](CC(=O)N1CCC(O)(Cn2cnc(N3C[C@H]4C[C@@H]3CN(C)C4)cc2=O)CC1)c1ccccc1 (single isomer, unassigned) [Example 181]
250 to 999	C[C@H](CC(=O)N1CCC(O)(Cn2cnc(N3CC4(CCOCC4)C3)cc2=O)CC1)c1ccccc1 [Example 174, (R)-3-((4-hydroxy-1-(3-phenylbutanoyl)piperidin-4-yl)methyl)-6-(7-oxa-2-azaspiro[3.5]nonan-2-yl)pyrimidin-4(3H)-one]
250 to 999	CC(C)Cn1cc(-c2cc(=O)n(CC3(O)CCN(C(=O)C[C@@H](C)c4ccccc4)CC3)cn2)cn1 [Example 41, (R)-3-((4-Hydroxy-1-(3-phenylbutanoyl)piperidin-4-yl)methyl)-6-(1-isobutyl-1H-pyrazol-4-yl)pyrimidin-4(3H)-one]

SMILES	IC50 [nM]
O=C(C[C@H](c1ccccc1)C(F)F)N1CCC(O)(Cn2cnc(NCCN3CCCC3)cc2=O)CC1 [Example 89, (R)-3-((1-(4,4-Difluoro-3-phenylbutanoyl)-4-hydroxypiperidin-4-yl)methyl)-6-((2-(pyrrolidin-1-yl)ethyl)amino)pyrimidin-4(3H)-one, Formic Acid]	250 to 999
C[C@H](CC(=O)N1CCC(O)(Cn2cnc(NCCN3CC[C@@H](F)C3)cc2=O)CC1)c1ccccc1 [Example 73, 6-((2-((R)-3-Fluoropyrrolidin-1-yl)ethyl)amino)-3-((4-hydroxy-1-((R)-3-phenylbutanoyl)piperidin-4-yl)methyl)pyrimidin-4(3H)-one, Formic Acid]	250 to 999
